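48-hour exposure; five concentrations; linearly interpolated endpoints. The concentration for 50% growth inhibition is given as GI50.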 Calls of active or inactive are those of the source. Rule as the data show it: active = GI50 up to about 1.1 µM and inactive = higher.
Tests used:
Assay in all cases: inhibition of tumour cell growth, NCI panel, 48 h
CCRF-CEM = test system: CCRF-CEM
SNB-19 = test system: SNB-19
SF-268 = test system: SF-268
SK-OV-3 = test system: SK-OV-3
RXF 393 = test system: RXF 393
UO-31 = test system: UO-31
HCC 2998 = test system: HCC 2998
RPMI-8226 = test system: RPMI-8226
SK-MEL-5 = test system: SK-MEL-5
UACC-62 = test system: UACC-62
M14 = test system: M14
SW-620 = test system: SW-620
HOP-62 = test system: HOP-62
CAKI-1 = test system: CAKI-1
HT-29 = test system: HT-29
786-0 = test system: 786-0
OVCAR-8 = test system: OVCAR-8
SN12C = test system: SN12C
PC-3 = test system: PC-3
DU-145 = test system: DU-145

Measured: GI50

CC1(C)Oc2ccccc2OC1O (stereo not given)
inactive: CCRF-CEM > 100 µM | SNB-19 > 100 µM | SF-268 > 100 µM | SK-OV-3 > 100 µM | RXF 393 > 100 µM | UO-31 > 100 µM | HCC 2998 > 100 µM | RPMI-8226 > 100 µM | SK-MEL-5 > 100 µM | UACC-62 > 100 µM | M14 > 100 µM | SW-620 > 100 µM | HOP-62 > 100 µM | CAKI-1 > 100 µM | HT-29 > 100 µM | 786-0 > 100 µM | OVCAR-8 > 100 µM | SN12C > 100 µM | PC-3 > 100 µM | DU-145 > 100 µM

Cc1ccc(S(=O)(=O)NN=C2CCCCCCCCCCC2)cc1
inactive: CCRF-CEM > 100 µM | SNB-19 > 100 µM | SF-268 > 100 µM | SK-OV-3 > 100 µM | RXF 393 58.1 µM | UO-31 > 100 µM | HCC 2998 > 100 µM | RPMI-8226 > 100 µM | SK-MEL-5 > 100 µM | UACC-62 > 100 µM | M14 > 100 µM | SW-620 > 100 µM | HOP-62 > 100 µM | CAKI-1 > 100 µM | HT-29 > 100 µM | 786-0 > 100 µM | OVCAR-8 > 100 µM | SN12C > 100 µM | PC-3 > 100 µM | DU-145 > 100 µM

COC1=C(Br)[C@H](O)[C@@]2(C=C1Br)CC(C(=O)NCCCOc1c(Br)cc(C(O)CNC(C)=O)cc1Br)=NO2 (stereo not given in full) [APLYSINAMISINE III]
inactive: CCRF-CEM > 10 µM | SNB-19 > 10 µM | SF-268 > 10 µM | SK-OV-3 > 10 µM | RXF 393 > 10 µM | UO-31 > 10 µM | HCC 2998 > 10 µM | RPMI-8226 > 10 µM | SK-MEL-5 4.86 µM | UACC-62 > 10 µM | M14 8.73 µM | SW-620 > 10 µM | HOP-62 > 10 µM | CAKI-1 > 10 µM | HT-29 > 10 µM | 786-0 > 10 µM | OVCAR-8 > 10 µM | SN12C > 10 µM | PC-3 > 10 µM | DU-145 > 10 µM

From ChEMBL document CHEMBL1201862, “PubChem BioAssay data set” (2004)
